In article PMC9086992 (Chemmedchem, 2022):

Key:
Format in all cases: cell-based
[1] = tested on: RPMI-8226 leukemia cell line; experiment: cells; conditions: Homo sapiens, RPMI-8226, 48 h, read-out: % inhibition RPMI-8226
HL-60 leukemia cell line = experiment: cells; conditions: Homo sapiens, HL-60, 48 h, read-out: % inhibition HL-60
[2] = tested on: MOLT-4 leukemia cell line; experiment: cells; conditions: Homo sapiens, MOLT-4, 48 h, read-out: % inhibition MOLT-4
[3] = tested on: CCRF-CEM leukemia cell line; experiment: cells; conditions: Homo sapiens, 48 h, read-out: % inhibition CCRF-CEM
K562 leukemia cell line = conditions: 10 μM compound, 48 h treatment, CellTiter-Blue

C[C@H]1[C@H](OC(=O)CCC(=O)O)O[C@@H]2O[C@@]3(C)CC[C@H]4[C@H](C)CC[C@@H]1[C@@]24OO3 [artesunic acid, Artesunic acid]
inhibition at 10 µM [1]: 27.3 ± 6.1%
inhibition at 10 µM (HL-60 leukemia cell line): 44.3 ± 7.4%
inhibition at 10 µM [2]: 9.9 ± 4.8%
inhibition at 10 µM [3]: 9.4 ± 4%

COc1cccc2c1C(=O)c1c(O)c3c(c(O)c1C2=O)C[C@@](O)(C(=O)CO)C[C@@H]3O[C@H]1C[C@H](N)[C@H](O)[C@H](C)O1 [doxorubicin]
inhibition at 10 µM [1]: 84.1 ± 3.2%
% inhibition K562 (K562 leukemia cell line): 78.2±4.1%
inhibition at 10 µM (HL-60 leukemia cell line): 91.5 ± 0.6%
inhibition at 10 µM [2]: 93.2 ± 2.6%
inhibition at 10 µM [3]: 92.3 ± 1.3%
